Assay results: patent US20210128724A1 (priority 2019, published 2021)

How the values were obtained:
[1] = parameters: species or system human; conditions: in vivo
[2] = parameters: species or system human; conditions: in vivo; for Development of post-traumatic syndrome after treatment within the first day after blast injury: sc
[3] = test system: C-fibers in the trigeminal ganglion; conditions: rat, in vivo
[4] = test system: Aδ-fibers in the trigeminal ganglion; conditions: rat, in vivo
[5] = test system: neurons in the trigeminal ganglion; conditions: rat, in vivo
[6] = test system: trigeminovascular Aδ-nociceptors, high threshold (HT) neurons, C-fiber and wide dynamic range (WDR) neurons; conditions: rat, in vivo

Molecule: onabotulinumtoxinA [BoNT-A]
- Outcome after treatment following 1 month of symptoms after head injury [1]: headaches are lessened in severity and frequency, they experience improved sleep and improved cognition
- Outcome after treatment promptly after head injury, before onset of symptoms [1]: continues to do well
- Outcome after treatment once symptoms had developed after blast injury [2]: headaches resolve a month after their treatment with decreased photophobia, dizziness, tinnitus and insomnia
- Development of post-traumatic syndrome after treatment within the first day after blast injury [2]: do not develop any features of a post-traumatic syndrome
- Baseline firing rate, C-fibers [3]: 0.7 spikes/sec
- Effect on response to CSD in unmyelinated C-fibers [3]: inhibited the response to CSD
- Baseline firing rate, Aδ-neurons [4]: 0.7 spikes/sec
- Effect on response to CSD in Aδ-neurons [4]: no significant difference
- Baseline firing rate prior to CSD [5]: 0.7 Hz

Molecule: fremanezumab
- Activation of C-fiber and wide dynamic range (WDR) neurons [6]: not
- Activation of trigeminovascular Aδ-nociceptors and high threshold (HT) neurons [6]: blocked the activation

B1: Galcanezumab (antibody, chains of the INN, looked up, V domains shown)
VH: QVQLVQSGAEVKKPGSSVKVSCKASGYTFGNYWMQWVRQAPGQGLEWMGAIYEGTGKTVYIQKFADRVTITADKSTSTAYMELSSLRSEDTAVYYCARLSDYVSGFGYWGQGTTVTVSS
VL: DIQMTQSPSSLSASVGDRVTITCRASKDISKYLNWYQQKPGKAPKLLIYYTSGYHSGVPSRFSGSGSGTDFTLTISSLQPEDFATYYCQQGDALPPTFGGGTKVEIK
- Development of post-traumatic syndrome after treatment within the first day after blast injury [2]: do not develop any features of a post-traumatic syndrome
